Here are results for seven substances from US5776950.

The conditions of this data set: amide bond, 24-membered ring.
[1] abbreviates: 2-chloro-1-methylpyridinium iodide/TEA, DCM, 4.2 mM, 25.0 °C.

Like-named read-outs stand apart in the source and are kept apart here.

For the setting “2-chloro-1-methylpyridinium iodide/TEA, DCM, 6.0 mM, 25.0 °C”, “cylo(D-2-hydroxypropanoyl-L-N-α-tetrahydroquinoline-3-carboxyl-D-2-hydroxypropanoyl-N-methyl-L-leucyl-D-2-hydroxypropanoyl-N-methyl-L-leucyl-D- 2-hydroxypropanoyl-N-methyl-L-leucyl)” came in with a ring closure, isolated yield of 50%.

Under setting [1], “cyclo(D-2-hydroxypropanoyl-L-N-δ-tetrahydroquinoline-3-carboxyl-D-2- hydroxy-3-phenylpropanoyl-N-methyl-L-leucyl-D-2-hydroxypropanoyl-N-methyl-L-leucyl-D-2-hydroxy-3-phenylpropanoyl-N-methyl-L-leucyl)” yielded a ring closure, isolated yield of 42%. “cyclo(D-2-hydroxy-3-phenylpropanoyl-L-prolyl-D-2-hydroxypropanoyl-N-methyl-L-leucyl-D-2-hydroxy-3-phenylpropanoyl-N-methyl-L-leucyl-D-2-hydroxypropanoyl-N-methyl-L-leucyl)”: where the note is “2-chloro-1-methylpyridinium iodide/TEA, DCM, 5.9 mM, 25.0 °C”, the ring closure, isolated yield stood at 12%. For “H-MeLeu-dLac-MeLeu-dLac-MeLeu-[3-oxy-2-oxopiperidin-1-yl (delta-lactam, replaces Lac + N-Me)]Leu-dPhLac-OH?”, the ring closure, isolated yield (the molecule shown is the open-chain precursor, BOP-Cl/DIEA, CH2Cl2, 0.98 mM) was 48%. Substance “cvlo(D-2-hydroxypropanoyl-L-pipecolyl-D-2-hydroxypropanoyl-N-methyl-L-leucyl-D-2-hydroxypropanoyl-N-methyl-L-leucyl-D-2-hydroxypropanoyl-N-methyl-L-leucyl)” had a ring closure, isolated yield (2-chloro-1-methylpyridinium iodide/TEA, DCM, 4.75 mM, 25.0 °C) of 34%. Under setting [1], “cyclo(D-2-hydroxy-3-phenylpropanoyl-L-pipecolyl-D-2-hydroxypropanoyl-N-methyl-L-leucyl-D-2-hydroxy-3-phenylpropanoyl-N-methyl-L-leucyl-D-2-hydroxypropanoyl-N-methyl-L-leucyl)” yielded a ring closure, isolated yield of 50%. Consider “H-MeLeu-dLac-MeLeu-dPhLac-MeLeu-[3-oxy-2-oxopiperidin-1-yl (delta-lactam, replaces Lac + N-Me)]Leu-dPhLac-OH?”, for which the ring closure, isolated yield (the molecule shown is the open-chain precursor, BOP-Cl/DIEA, CH2Cl2, 0.99 mM) is 65%.
